Experimental findings from US12624034B2, “Non-covalent modifiers of AKT1 and uses thereof” (Terremoto Biosciences, Inc., priority 2023, dated 2026) are described below.

Read-outs that look alike come from different tables or passages of the source.

The target in one assay is T1, AKT1 WT (Homo sapiens, UniProt P31749).
T1 construct: expressed in transfected cells; host or cells: HEK293
As to the kind of experiment: Live cell AKT1 WT target engagement by NanoBRET competitive probe displacement in HEK293 cells. In kind it is binding. The settings on record: 2 h at 37° C., read-out: AKT1 WT IC50. On the technique in general: In BRET a luciferase serves as donor, and the signal depends on an acceptor being close.

Assay [1] relates to LAPC4 prostate cancer cells, which express the AKT1 E17K allele. Put plainly: Antiproliferative effects in LAPC4 cells (CellTiter Glo, 72 h). The following applies: Homo sapiens, LAPC4, 72 h, read-out: LAPC4 proliferation IC50. The format is cell-based. The essentials: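 LAPC4 prostate cancer cells carrying AKT1 E17K, grown in IMDM with 12% FBS, were seeded at 1,000 cells/well and exposed to compound dilutions for 72 h. Viability was read as intracellular ATP by CellTiter Glo luminescence, and IC50 was fitted with a log(inhibitor) vs. response Hill equation.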

Another assay deals with T2, AKT2 (Homo sapiens, UniProt P31751).
T2 construct: expressed in transfected cells; host or cells: HEK293
As to the kind of experiment: Live cell AKT2 target engagement by NanoBRET competitive probe displacement in HEK293 cells. The format is binding. The following applies: 2 h at 37° C., read-out: AKT2 IC50.

The next assay has as its target T3, AKT1 E17K (Homo sapiens, UniProt P31749, E17K).
T3 construct: expressed in transfected cells; host or cells: HEK293
As to the kind of experiment: Live cell AKT1 E17K target engagement by NanoBRET competitive probe displacement in HEK293 cells. The format is binding. The settings on record: 2 h at 37° C. The essentials: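 HEK293 cells transiently expressing kinase–NanoLuciferase fusions were treated with serial compound dilutions plus fluorescent ATP-competitive tracer at ~EC50, 2 h at 37 °C. Emission at 460 and 600 nm read after substrate and extracellular luciferase inhibitor; IC50 from Hill fit of E600/E460 BRET ratio.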

The mark [2] stands for this setting: NanoBRET live cell target engagement, HEK293 cells.
Setting [3] is: NanoBRET competitive probe displacement, live HEK293 cells.

T2 sequence (P31751 whole entry): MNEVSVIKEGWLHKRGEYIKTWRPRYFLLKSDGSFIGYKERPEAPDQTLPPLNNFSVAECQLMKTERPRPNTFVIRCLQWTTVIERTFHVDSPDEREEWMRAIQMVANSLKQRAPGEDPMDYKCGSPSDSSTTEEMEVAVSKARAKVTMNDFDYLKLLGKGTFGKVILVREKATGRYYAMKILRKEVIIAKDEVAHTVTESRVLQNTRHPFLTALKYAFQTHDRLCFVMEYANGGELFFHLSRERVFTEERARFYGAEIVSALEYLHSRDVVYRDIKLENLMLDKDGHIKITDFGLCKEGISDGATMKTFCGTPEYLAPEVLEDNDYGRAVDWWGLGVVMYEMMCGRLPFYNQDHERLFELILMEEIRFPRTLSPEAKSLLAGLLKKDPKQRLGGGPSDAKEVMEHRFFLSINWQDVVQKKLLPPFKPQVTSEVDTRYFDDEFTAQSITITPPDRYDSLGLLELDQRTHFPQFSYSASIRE
T1 sequence (P31749 whole entry): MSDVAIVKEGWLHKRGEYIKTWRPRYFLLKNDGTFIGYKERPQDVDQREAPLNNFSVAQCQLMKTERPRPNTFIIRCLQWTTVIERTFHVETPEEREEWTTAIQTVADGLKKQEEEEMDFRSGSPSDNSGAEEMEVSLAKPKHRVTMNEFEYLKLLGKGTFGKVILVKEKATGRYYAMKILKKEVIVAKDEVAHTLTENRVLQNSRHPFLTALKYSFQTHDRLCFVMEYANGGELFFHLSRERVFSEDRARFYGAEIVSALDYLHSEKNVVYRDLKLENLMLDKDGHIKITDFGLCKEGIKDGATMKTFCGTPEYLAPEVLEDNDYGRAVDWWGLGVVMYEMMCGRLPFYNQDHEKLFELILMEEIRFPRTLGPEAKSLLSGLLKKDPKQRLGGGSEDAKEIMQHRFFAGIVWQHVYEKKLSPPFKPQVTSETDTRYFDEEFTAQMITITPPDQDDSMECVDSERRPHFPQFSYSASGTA
T3 sequence (P31749 whole entry E17K): as the sequence (P31749 whole entry) above, with E17K counted along it

For `Cc1cc(C(F)F)ncc1C(=O)N[C@H]1CCc2cc(-n3c(-c4cccnc4N)nc4ccc(-n5cccn5)nc43)ccc21` [Compound 56, (S)—N-(5-(2-(2-aminopyridin-3-yl)-5-(1H-pyrazol-1-yl)-3H-imidazo[4,5-b]pyridin-3-yl)-2,3-dihydro-1H-inden-1-yl)-6-(difluoromethyl)-4-methylnicotinamide], the IC50 on AKT1 WT (setting [2]) is 12.2 nM; in assay [1], 1630 nM; at AKT2 (setting [2]) it was 43.3 nM; on AKT1 E17K (setting [2]), 143 nM.

As to `COc1cc(C(=O)N[C@H]2CCc3cc(-n4c(-c5cccnc5N)nc5ccc(-n6cccn6)nc54)ccc32)cc(OC)n1` [Compound 283], the IC50 was 2.75 nM at AKT1 WT (setting [2]), 264 nM in assay [1], 2.91 nM at AKT2 (setting [2]) and 10.6 nM on AKT1 E17K (setting [2]).

For `Nc1ncccc1-c1nc2ccc(-n3cccn3)nc2n1-c1ccc2c(c1)CC[C@@H]2NC(=O)c1ccc(-n2cccn2)nc1` [Compound 54, (S)—N-(5-(2-(2-aminopyridin-3-yl)-5-(1H-pyrazol-1-yl)-3H-imidazo[4,5-b]pyridin-3-yl)-2,3-dihydro-1H-inden-1-yl)-6-(1H-pyrazol-1-yl)nicotinamide], the IC50 is 12 nM on AKT1 WT (setting [2]), 207 nM in assay [1], 10.7 nM on AKT2 (setting [2]) and 17.4 nM on AKT1 E17K (setting [2]).

Take `Nc1ncccc1-c1nc2ccc(-n3cccn3)nc2n1-c1ccc2c(c1)CC[C@@H]2NC(=O)c1ccc(C(F)F)nc1` [Compound 18, (S)—N-(5-(2-(2-aminopyridin-3-yl)-5-(1H-pyrazol-1-yl)-3H-imidazo[4,5-b]pyridin-3-yl)-2,3-dihydro-1H-inden-1-yl)-6-(difluoromethyl)nicotinamide]: the IC50 at AKT1 WT (setting [2]) turned out to be 10.5 nM; in assay [1] it was 733 nM; on AKT2 (setting [2]), 55.5 nM; on AKT1 E17K (setting [2]), 44.4 nM.

For `Nc1ncccc1-c1nc2ccc(-n3cccn3)nc2n1-c1ccc2c(c1)CC[C@@H]2n1cnnc1CC1CC1` [Compound 384], the IC50 was 13.2 nM on AKT1 WT (setting [2]), 1260 nM in assay [1], 525 nM at AKT2 (setting [2]) and 93.9 nM on AKT1 E17K (setting [2]).

In the case of `Nc1ncccc1-c1nc2ccc(-n3cccn3)nc2n1-c1ccc2c(c1)CC[C@@H]2NC(=O)c1ccn(C(F)F)n1` [Compound 174], the IC50 was determined as 13.2 nM at AKT1 WT (setting [2]), 1440 nM in assay [1], 431 nM at AKT2 (setting [2]) and 52 nM on AKT1 E17K (setting [2]).

Turning to `Nc1ncccc1-c1nc2ccc(-n3cccn3)nc2n1-c1ccc2c(c1)CC[C@@H]2NC(=O)c1ccc(O)c(O)c1` [Compound 323], the IC50 on AKT1 WT (setting [2]) was 45.6 nM; in assay [1], 713 nM; at AKT2 (setting [2]), 594 nM; on AKT1 E17K (setting [2]) it was 112 nM.

As to `Nc1ncccc1-c1nc2ccc(-n3cccn3)nc2n1-c1ccc2c(c1)CC[C@@H]2NC(=O)c1cc(O)c(O)cc1F` [Compound 351, N-[(1S)-5-[2-(2-aminopyridin-3-yl)-5-(pyrazol-1-yl)imidazo[4,5-b]pyridin-3-yl]-2,3-dihydro-1H-inden-1-yl]-2-fluoro-4,5-dihydroxybenzamide], the IC50 turned out to be 20.3 nM at AKT1 WT (setting [2]), 1140 nM in assay [1], 497 nM on AKT2 (setting [2]) and 82.5 nM on AKT1 E17K (setting [2]).

For the compound `Nc1ncccc1-c1nc2ccc(-n3ccc(N4CCOCC4)n3)nc2n1-c1ccc2c(c1)CC[C@@H]2NC1CCN(C(=O)C2CC2)CC1` [Compound 488], the IC50 at AKT1 WT (setting [3]) came to 7.99 nM; in assay [1], 624 nM; at AKT2 (setting [3]) it was 98 nM; at AKT1 E17K (setting [3]), 30.6 nM.

Consider `Nc1ncccc1-c1nc2ccc(-n3cccn3)nc2n1-c1ccc2c(c1)CC[C@@H]2NC1CCN(S(=O)(=O)C2CC2)CC1` [Compound 393], for which the IC50 was 125 nM at AKT1 WT (setting [3]), over 10000 nM in assay [1], 3850 nM at AKT2 (setting [3]) and over 1000 nM at AKT1 E17K (setting [3]).

Turning to `Nc1ncccc1-c1nc2ccc(-n3cccn3)nc2n1-c1ccc2c(c1)CC(F)[C@@H]2NC1CCc2cnccc21` (single isomer, unassigned) [Compound 482], the IC50 at AKT1 WT (setting [3]) is 5.39 nM; in assay [1], 827 nM; on AKT2 (setting [3]), 194 nM; at AKT1 E17K (setting [3]) it was 140 nM.

In the case of `N#CC1(C(=O)N2CCC(N[C@H]3CCc4cc(-n5c(-c6cccnc6N)nc6ccc(-n7cccn7)nc65)ccc43)CC2)CC1` [Compound 369], the IC50 was 117 nM on AKT1 WT (setting [2]), over 10000 nM in assay [1], 5590 nM on AKT2 (setting [2]) and over 1000 nM at AKT1 E17K (setting [2]).

Turning to `Nc1ncccc1-c1nc2ccc(-n3cccn3)nc2n1-c1ccc2c(c1)CC[C@@H]2n1cc(C2CCC2)nn1` [Compound 287], the IC50 stood at 16.9 nM on AKT1 WT (setting [2]), 3000 nM in assay [1], 636 nM on AKT2 (setting [2]) and 259 nM on AKT1 E17K (setting [2]).

Turning to `CN(C)c1cc(C(=O)N[C@H]2CCc3cc(-n4c(-c5cccnc5N)nc5ccc(-n6cccn6)nc54)ccc32)ccn1` [Compound 63, (S)—N-(5-(2-(2-aminopyridin-3-yl)-5-(1H-pyrazol-1-yl)-3H-imidazo[4,5-b]pyridin-3-yl)-2,3-dihydro-1H-inden-1-yl)-2-(dimethylamino)isonicotinamide], the IC50 on AKT1 WT (setting [2]) was determined as 2.57 nM; in assay [1], 970 nM; on AKT2 (setting [2]) it was 12.6 nM; at AKT1 E17K (setting [2]), 73.9 nM.

For the compound `Nc1ncccc1-c1nc2ccc(-n3cccn3)nc2n1-c1ccc2c(c1)CC[C@@H]2NC(=O)Cc1cccnc1` [Compound 48, (S)—N-(5-(2-(2-aminopyridin-3-yl)-5-(1H-pyrazol-1-yl)-3H-imidazo[4,5-b]pyridin-3-yl)-2,3-dihydro-1H-inden-1-yl)-2-(pyridin-3-yl)acetamide], the IC50 is 155 nM at AKT1 WT (setting [2]), over 10000 nM in assay [1], 2850 nM at AKT2 (setting [2]) and over 1000 nM at AKT1 E17K (setting [2]).

In the case of `Nc1ncccc1-c1nc2ccc(-n3cccn3)nc2n1-c1ccc2c(c1)CC[C@@H]2NC(=O)c1ccc2[nH]cnc2c1` [Compound 22, (S)—N-(5-(2-(2-aminopyridin-3-yl)-5-(1H-pyrazol-1-yl)-3H-imidazo[4,5-b]pyridin-3-yl)-2,3-dihydro-1H-inden-1-yl)-1H-benzo[d]imidazole-5-carboxamide], the IC50 on AKT1 WT (setting [2]) stood at 11.2 nM; in assay [1] it was 1260 nM; on AKT2 (setting [2]), 67.6 nM; at AKT1 E17K (setting [2]) it was 31.9 nM.

Take `Nc1ncccc1-c1nc2ccc(-n3cccn3)nc2n1-c1ccc2c(c1)CC[C@@H]2NC(=O)c1ccc(O)c(C(F)(F)F)c1` [Compound 257]: the IC50 on AKT1 WT (setting [2]) was 8.26 nM; in assay [1] it was 1430 nM; at AKT2 (setting [2]) it was 273 nM; on AKT1 E17K (setting [2]), 16.5 nM.

As to `COc1ccc(C(=O)N[C@H]2CCc3cc(-n4c(-c5cccnc5N)nc5ccc(-n6cccn6)nc54)ccc32)cn1` [Compound 38, N-[(1S)-5-[2-(2-aminopyridin-3-yl)-5-(pyrazol-1-yl)imidazo[4,5-b]pyridin-3-yl]-2,3-dihydro-1H-inden-1-yl]-6-methoxypyridine-3-carboxamide], the IC50 came to 4.07 nM on AKT1 WT (setting [2]), 585 nM in assay [1], 19 nM at AKT2 (setting [2]) and 25.6 nM at AKT1 E17K (setting [2]).

Take `Nc1ncccc1-c1nc2ccc(-n3cccn3)nc2n1-c1ccc2c(c1)CC[C@@H]2NC(=O)c1cc[nH]c(=O)c1` [Compound 318]: the IC50 on AKT1 WT (setting [2]) came out at 149 nM; in assay [1], 3600 nM; on AKT2 (setting [2]), 931 nM; at AKT1 E17K (setting [2]), 181 nM.

As for `Nc1ncccc1-c1nc2ccc(-n3cccn3)nc2n1-c1ccc2c(c1)CC[C@@H]2NC(=O)c1ccnc2c1OCCO2` [Compound 356], the IC50 on AKT1 WT (setting [2]) is 52.3 nM; in assay [1] it was over 10000 nM; on AKT2 (setting [2]) it was 1070 nM; on AKT1 E17K (setting [2]), over 1000 nM.

On to `Nc1ncccc1-c1nc2ccc(-n3cccn3)nc2n1-c1ccc2c(c1)CC[C@@H]2NC(=O)Cc1ccccn1` [Compound 50, (S)—N-(5-(2-(2-aminopyridin-3-yl)-5-(1H-pyrazol-1-yl)-3H-imidazo[4,5-b]pyridin-3-yl)-2,3-dihydro-1H-inden-1-yl)-2-(pyridin-2-yl)acetamide], for which the IC50 at AKT1 WT (setting [2]) is 279 nM; in assay [1], over 10000 nM; on AKT2 (setting [2]) it was 3740 nM; at AKT1 E17K (setting [2]), over 1000 nM.

`Nc1ncccc1-c1nc2ccc(-n3cccn3)nc2n1-c1ccc2c(c1)CC[C@@H]2NC1CCN(c2cccnc2)CC1` [Compound 368]: the IC50 at AKT1 WT (setting [2]) turned out to be 36.8 nM; in assay [1] it was 6620 nM; at AKT2 (setting [2]), 768 nM; on AKT1 E17K (setting [2]) it was 406 nM.

For `Nc1ncccc1-c1nc2ccc(-c3ccccc3)nc2n1-c1ccc2c(c1)CC[C@@H]2NC1CCN(C(=O)C2CC2)CC1` [Compound 391], the IC50 worked out at 19.7 nM at AKT1 WT (setting [2]), 2250 nM in assay [1], 103 nM on AKT2 (setting [2]) and 257 nM at AKT1 E17K (setting [2]).

As for `Nc1ncccc1-c1nc2ccc(-n3nccn3)nc2n1-c1ccc2c(c1)CC[C@@H]2NC(=O)c1cnc(C(F)F)cn1` [Compound 288], the IC50 on AKT1 WT (setting [2]) was 112 nM; in assay [1] it was 3680 nM; on AKT2 (setting [2]) it was over 10000 nM; at AKT1 E17K (setting [2]), over 1000 nM.
